# Data: patent US11608332B2, “FGFR4 inhibitor and preparation method and use thereof” (Jiangsu Hansoh Pharmaceutical Group Co., Ltd., priority 2016, dated 2023)
# Assays:
# [1] = biological target: FGFR4 kinase (Homo sapiens (Human), UniProt P22455); experiment: Enzymologic experiment of FGFR4 (TR-FRET); assay type: biochemical; conditions: TR-FRET kinase activity
# Experimental: 1. Enzymologic Experiment of FGFR4
# In this experiment, the inhibitory effect of the compounds on FGFR4 kinase activity was tested by a fluorescence resonance energy transfer (TR-FRET) method, and the half maximal inhibitory concentration (IC50) of the compounds on the FGFR4 kinase activity was determined.
# 2) 1˜5 μL of diluted solution in gradient of the compound were added.
# 4) The mixture was incubated for 0.5-3 hours at room temperature.
# 5) 10 μL of EDTA and a test solution comprising labeled antibody were added, and the plate was incubated for 1 hour at room temperature.
# 6) The fluorescence signal values of each plate were determined by a microplate reader at 665 nm.
# 7) The inhibition rates were calculated according to the fluorescence signal values.
# [2] = biological target: FGFR1 kinase (Homo sapiens (Human), UniProt P11362); experiment: Enzymologic experiment of FGFR1 (TR-FRET); assay type: biochemical; conditions: TR-FRET kinase activity
# Method in brief: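 Inhibition of FGFR1 (0.1–5 nM) was measured by TR-FRET with 5–50 nM peptide substrate and 10–200 μM ATP over 0.5–3 h at room temperature. The reaction was stopped with EDTA plus labeled antibody for 1 h, read at 665 nm, and IC50 was fitted from inhibition rates.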
# [3] = tested on: Hep 3B cells; experiment: Inhibition of Hep 3B cell proliferation (CellTiter-Glo); assay type: cell-based; conditions: Homo sapiens, Hep3B, 72 hours
# Method in brief: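 Hep 3B cells seeded at 1-5×10^4 cells/ml and incubated 16-24 h, then exposed to serially diluted compound for 72 h at 37° C, 5% CO2. Viability read by CellTiter-Glo chemiluminescence; IC50 curve-fitted from inhibition rates.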
# [4] = tested on: HuH-7 cells; experiment: Inhibition of HuH-7 cell proliferation (CellTiter-Glo); assay type: cell-based; conditions: Homo sapiens, 72 hours
# Method in brief: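 HuH-7 cells, pre-incubated 16–24 h (37 °C, 5% CO2), then exposed to serially diluted compound for 72 h. Viability by CellTiter-Glo luminescence; inhibition rates from signal, IC50 by curve fitting.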
# [5] = tested on: SK-HEP-1 cells; experiment: Inhibition of SK-HEP-1 cell proliferation (CellTiter-Glo); assay type: cell-based; conditions: Homo sapiens, SK-HEP1, 72 hours
# Method in brief: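 SK-HEP-1 cells were seeded, grown 16–24 h, then exposed to serially diluted compound for 72 h at 37 °C, 5% CO2. Viability was read by CellTiter-Glo luminescence, and IC50 was fitted from inhibition rates.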
# [6] = Pharmacokinetic (PK) analysis in rats; assay type: in vivo, Sprague Dawley (SD) rats; conditions: SD rats, single intragastric administration, 5 mg/kg, plasma; for AUC(0-t) / AUC(0-inf) / half-life / MRT / Cmax: Sprague-Dawley, rat, po; for AUC(0-t): read-out: Area Under Curve AUC0-t; for AUC(0-inf): read-out: Area Under Curve AUC0-∞; for half-life: read-out: Half-Time t1/2 (converted); for MRT: read-out: Mean Residence Time MRT; for Cmax: read-out: Plasma Concentration Cmax
# FGFR4 kinase, sequence (P22455 22-802): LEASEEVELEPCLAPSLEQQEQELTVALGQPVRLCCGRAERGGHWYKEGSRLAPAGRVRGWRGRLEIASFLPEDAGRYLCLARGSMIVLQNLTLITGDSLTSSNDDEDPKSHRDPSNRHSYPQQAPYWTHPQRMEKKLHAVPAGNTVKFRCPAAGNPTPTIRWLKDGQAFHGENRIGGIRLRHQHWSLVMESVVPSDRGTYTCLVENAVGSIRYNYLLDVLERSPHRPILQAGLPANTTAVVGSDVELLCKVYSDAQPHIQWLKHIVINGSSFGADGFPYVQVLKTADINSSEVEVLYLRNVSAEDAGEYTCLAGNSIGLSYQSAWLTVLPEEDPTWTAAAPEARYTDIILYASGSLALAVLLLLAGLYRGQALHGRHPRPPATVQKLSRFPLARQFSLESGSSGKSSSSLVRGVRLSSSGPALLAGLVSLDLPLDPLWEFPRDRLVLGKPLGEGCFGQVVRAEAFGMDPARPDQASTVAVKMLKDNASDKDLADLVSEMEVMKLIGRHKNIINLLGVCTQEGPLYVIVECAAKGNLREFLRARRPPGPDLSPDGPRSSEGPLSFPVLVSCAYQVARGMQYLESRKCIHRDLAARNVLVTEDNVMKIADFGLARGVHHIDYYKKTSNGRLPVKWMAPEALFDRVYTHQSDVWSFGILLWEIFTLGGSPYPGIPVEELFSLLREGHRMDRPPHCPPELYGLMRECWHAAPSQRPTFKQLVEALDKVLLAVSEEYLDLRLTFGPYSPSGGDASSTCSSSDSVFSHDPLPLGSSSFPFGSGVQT
# FGFR1 kinase, sequence (P11362 22-822): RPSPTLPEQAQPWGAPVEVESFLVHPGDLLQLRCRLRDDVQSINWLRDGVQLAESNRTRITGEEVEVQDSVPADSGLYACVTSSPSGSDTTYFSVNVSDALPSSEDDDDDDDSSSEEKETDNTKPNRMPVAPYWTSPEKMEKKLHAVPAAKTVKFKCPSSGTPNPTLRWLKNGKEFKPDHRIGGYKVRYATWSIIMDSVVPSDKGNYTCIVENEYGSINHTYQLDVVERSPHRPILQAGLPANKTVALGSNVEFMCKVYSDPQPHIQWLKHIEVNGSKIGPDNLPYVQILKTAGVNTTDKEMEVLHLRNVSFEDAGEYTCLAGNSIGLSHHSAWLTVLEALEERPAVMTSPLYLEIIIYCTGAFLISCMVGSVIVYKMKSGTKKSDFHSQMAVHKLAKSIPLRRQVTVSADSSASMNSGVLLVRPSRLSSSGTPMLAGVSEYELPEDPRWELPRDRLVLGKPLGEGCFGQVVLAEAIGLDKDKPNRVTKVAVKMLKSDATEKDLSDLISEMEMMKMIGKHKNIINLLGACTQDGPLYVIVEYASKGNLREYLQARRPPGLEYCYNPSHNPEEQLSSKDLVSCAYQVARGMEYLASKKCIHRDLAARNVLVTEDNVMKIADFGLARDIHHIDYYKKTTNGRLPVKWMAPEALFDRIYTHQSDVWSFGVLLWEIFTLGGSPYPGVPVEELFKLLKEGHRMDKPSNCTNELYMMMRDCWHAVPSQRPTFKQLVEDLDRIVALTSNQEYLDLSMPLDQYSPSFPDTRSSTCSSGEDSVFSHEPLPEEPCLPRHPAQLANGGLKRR
IC50 [1],IC50 [2],IC50 [4],IC50 [5],Peak Time tmax [6],AUC(0-t) [6],AUC(0-inf) [6],half-life [6],MRT [6],Cmax [6],Structure (SMILES),IC50 [3]
1.32 nM,> 10000 nM,5.5 nM,> 10000 nM,2 h,7520 ng·h/mL,7590 ng·h/mL,0.9 h,3 h,2330 ng/mL,"CO[C@H]1CCN(Cc2cc3c(nc2C=O)N(C(=O)Nc2cc(NC4COC4)c(C#N)cn2)CCC3)C1=O [Example 83, (S)—N-(5-Cyano-4-(oxetan-3-ylamino)pyridin-2-yl)-7-formyl-6-((3-methoxy-2-carbonylpyrrolidin-1-yl)methyl)-3,4-dihydro-1,8-naphthyridin-1(2H)-carboxamide]",4.7 nM
1.98 nM,> 10000 nM,10.7 nM,> 10000 nM,2 h,8760 ng·h/mL,8370 ng·h/mL,1.4 h,2.5 h,3140 ng/mL,"COCCSc1cc(NC(=O)N2CCCc3cc(CN(C)C(=O)[C@H]4CCCO4)c(C=O)nc32)ncc1C#N [Example 16, (R)—N-(5-Cyano-4-((2-methoxyethyl)thio)pyridin-2-yl)-7-formyl-6-((N-methyltetrahydrofuran-2-carboxamido)methyl)-3,4-dihydro-1,8-naphthyridin-1(2H)-carboxamide]",3.9 nM
1.34 nM,> 10000 nM,13.1 nM,> 10000 nM,2 h,6830 ng·h/mL,6900 ng·h/mL,1 h,2.7 h,2760 ng/mL,CO[C@H]1CCN(Cc2cc3c(nc2C=O)N(C(=O)Nc2cc(N[C@@H]4COC[C@H]4OC)c(C#N)cn2)CCC3)C1=O [Example 86],3 nM
0.74 nM,> 10000 nM,31 nM,> 10000 nM,2 h,4400 ng·h/mL,4800 ng·h/mL,1.3 h,3 h,1700 ng/mL,"COCCNc1cc(NC(=O)N2CCCc3cc(CN(C)C(=O)[C@H]4CCCN4C)c(C=O)nc32)ncc1C#N [Example 9, (R)—N-(5-Cyano-4-((2-methoxyethyl)amino)pyridin-2-yl)-6-((N,1-dimethylpyrrolidin-2-carboxamido)methyl)-7-formyl-3,4-dihydro-1,8-naphthyridin-1(2H)-carboxamide]",8.2 nM
2.53 nM,> 10000 nM,8 nM,> 10000 nM,2 h,7160 ng·h/mL,7970 ng·h/mL,1.5 h,3 h,2690 ng/mL,"COC[C@@H](C)Oc1cc(NC(=O)N2CCCc3cc(CN(C)C(=O)[C@H]4CCCO4)c(C=O)nc32)ncc1C#N [Example 15, N-(5-Cyano-4-(((R)-1-methoxypropan-2-yl)oxy)pyridin-2-yl)-7-formyl-6-(((R)—N-methyltetrahydrofuran-2-carboxamido)methyl)-3,4-dihydro-1,8-naphthyridin-1(2H)-carboxamide]",3.5 nM
1.47 nM,> 10000 nM,43.7 nM,> 10000 nM,,,,,,,"CCN1CCC[C@@H]1C(=O)N(C)Cc1cc2c(nc1C=O)N(C(=O)Nc1cc(NCCOC)c(C#N)cn1)CCC2 [Example 97, (R)—N-(5-Cyano-4-((2-methoxyethyl)amino)pyridin-2-yl)-6-((1-ethyl-N-methylpyrrolidin-2-carboxamido)methyl)-7-formyl-3,4-dihydro-1,8-naphthyridin-1(2H)-carboxamide]",9.8 nM
1.95 nM,> 10000 nM,12 nM,> 10000 nM,,,,,,,"CN(Cc1cc2c(nc1C=O)N(C(=O)Nc1cc(N[C@H]3CCOC3)c(C#N)cn1)CCC2)C(=O)C1CCOCC1 [Example 99, (S)—N-(5-Cyano-4-((tetrahydrofuran-3-yl)amino)pyridin-2-yl)-7-formyl-6-((N-methyltetrahydro-2H-pyran-4-carboxamido)methyl)-3,4-dihydro-1,8-naphthyridin-1(2H)-carboxamide]",5.5 nM
1.2 nM,> 10000 nM,9.4 nM,> 10000 nM,2 h,9220 ng·h/mL,9240 ng·h/mL,0.8 h,2.5 h,2350 ng/mL,"COC[C@@H](C)Oc1cc(NC(=O)N2CCCc3cc(CN4CC[C@H](OC)C4=O)c(C=O)nc32)ncc1C#N [Example 50, N-(5-Cyano-4-(((R)-1-methoxypropan-2-yl)oxy)pyridin-2-yl)-7-formyl-6-(((S)-3-methoxy-2-carbonylpyrrolidin-1-yl)methyl)-3,4-dihydro-1,8-naphthyridin-1(2H)-carboxamide]",2.3 nM
